Results reported in patent publication USRE42462E1, “Carboxylic acid derivatives, their preparation and use” (Abbott GmbH & Co. KG, priority 1995, dated 2011).

Columns and labels:
ETB receptors = target: T1, ETB receptors (Cavia porcellus, UniProt H0VTF3); experiment: ETB receptor binding assay ([125I]-RZ3, guinea pig cerebellar membranes); settings: 25 pM [125I]-RZ3, 25° C., 30 min
T1 construct: Guinea pig cerebella were homogenized in a Potter-Elvejhem homogenizer; from tissue; host or cells: guinea pig cerebellum membranes
T1 sequence (H0VTF3 27-415): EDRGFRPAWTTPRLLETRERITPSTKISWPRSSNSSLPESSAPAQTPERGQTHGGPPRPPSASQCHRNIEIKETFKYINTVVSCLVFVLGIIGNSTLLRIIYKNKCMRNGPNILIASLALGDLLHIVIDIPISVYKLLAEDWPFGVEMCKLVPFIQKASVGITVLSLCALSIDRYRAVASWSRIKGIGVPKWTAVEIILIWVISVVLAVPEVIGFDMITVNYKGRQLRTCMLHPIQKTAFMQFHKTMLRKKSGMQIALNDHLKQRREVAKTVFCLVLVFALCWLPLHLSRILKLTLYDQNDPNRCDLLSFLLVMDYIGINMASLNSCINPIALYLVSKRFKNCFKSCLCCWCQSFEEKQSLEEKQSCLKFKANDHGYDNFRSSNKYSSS
Experimental: Guinea pig cerebella were homogenized in a Potter-Elvejhem homogenizer and [lacuna] obtained by differential centrifugation at 1000×g for 10 min and repeated centrifugation of the supernatant at 20,000×g for 10 min.

[1] = target: T2, Cloned human ETA receptor (Homo sapiens, UniProt P25101); experiment: ETA receptor binding assay ([125I]-ET1, membranes of CHO cells); settings: 25 pM [125I]-ET1, 25° C., 30 min
T2 construct: expressed in transfected cells; host or cells: CHO cells
T2 sequence (P25101 21-427): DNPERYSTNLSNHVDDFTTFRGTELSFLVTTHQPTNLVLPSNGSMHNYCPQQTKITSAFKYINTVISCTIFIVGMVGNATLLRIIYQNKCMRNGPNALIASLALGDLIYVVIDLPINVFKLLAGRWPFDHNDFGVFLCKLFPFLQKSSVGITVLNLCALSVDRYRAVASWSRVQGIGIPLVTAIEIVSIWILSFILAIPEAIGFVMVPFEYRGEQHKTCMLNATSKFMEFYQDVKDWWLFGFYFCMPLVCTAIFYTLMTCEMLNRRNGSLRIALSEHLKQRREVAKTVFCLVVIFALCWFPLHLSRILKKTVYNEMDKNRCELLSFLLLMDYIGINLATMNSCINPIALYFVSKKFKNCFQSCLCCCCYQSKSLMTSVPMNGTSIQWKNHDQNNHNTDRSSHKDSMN
Experimental: Cloned human ETA receptor-expressing CHO cells and guinea pig cerebellar membranes with >60% ETB compared with ETA receptors were used for binding studies.
The ETA receptor-expressing CHO cells were grown in F12 medium containing 10% fetal calf serum, 1% glutamine, 100 U/ml penicillin and 0.2% streptomycin (Gibco BRL, Gaithersburg, Md., USA).
After 48 h, the cells were washed with PBS and incubated with 0.05% trypsin-containing PBS for 5 min. Neutralization was then carried out with F12 medium, and the cells were collected by centrifugation at 300×g. To lyze lyse the cells, the pellet was briefly washed with lysis buffer (5 mM Tris-IICl, pII 7.4 with 10% glycerol) and then incubated at a concentration of 10^7 cells/ml of lysis buffer at 4° C. for 30 min. The membranes were centrifuged at 20,000×g for 10 min, and the pellet was stored in liquid nitrogen.
For the ETA and ETB receptor binding assay, the membranes were suspended in incubation buffer (50 mM Tris-HCl, pH 7.4 with 5 mM MnCl2, 40 μg/ml bacitracin and 0.2% BSA) at a concentration of 50 μg of protein per assay mixture and incubated with 25 pM [125I] [^125I]-ET1 (ETA receptor assay) or 25 pM [125I] [^125I]-RZ3 (ETB receptor assay) in the presence and absence of test substance at 25° C. The nonspecific binding was determined using 10^--7 10^−7 M ET1. After 30 min, the free and bound radioligand were separated by filtration through GF/B glass fiber filters (Whatman, England) on a Skatron cell collector (Skatron, Lier, Norway) and the filters were washed with ice-cold Tris-HCl buffer, pH 7.4 with 0.2% BSA. The radioactivity collected on the filters was quantified using a Packard 2200 CA liquid scintillation counter.

SMILES | Ki (ETB receptors) [nM] | Ki [1] [nM] | melting point [°C]
COc1cc(OC)nc(OC(C(=O)O)C(OC)(c2ccccc2)c2ccccc2)n1 (stereo not drawn) [Compound I-2] | 34 | – | –
CCOC(c1ccccc1)(c1ccccc1)C(Oc1nc(OC)cc(OC)n1)C(=O)O (stereo not drawn) [Compound I-4] | 2500 | – | –
COc1cc(OC)nc(OC(C(=O)O)C(OC(C)C)(c2ccccc2)c2ccccc2)n1 (stereo not drawn) [Compound I-5] | 160 | 12 | –
CCCOC(c1ccccc1)(c1ccccc1)C(Oc1nc(OC)cc(OC)n1)C(=O)O (stereo not drawn) [Compound I-12] | 1700 | – | –
COc1cc(OC)nc(OC(C(=O)O)C(OCCCC(C)C)(c2ccccc2)c2ccccc2)n1 (stereo not drawn) [Compound I-23] | 1100 | 209 | –
COc1cc(OC)nc(OC(C(=O)O)C(OCC2CC2)(c2ccccc2)c2ccccc2)n1 (stereo not drawn) [Compound I-26] | 2000 | 23 | –
COc1cc(OC)nc(OC(C(=O)O)C(Oc2ccccc2)(c2ccccc2)c2ccccc2)n1 (stereo not drawn) [Compound I-29] | 180 | 86 | –
COc1cc(OC)nc(OC(C(=O)O)C(OCc2ccccc2)(c2ccccc2)c2ccccc2)n1 (stereo not drawn) [Compound I-47] | 1500 | 150 | –
COc1nc(OC(C(=O)O)C(OC)(c2ccccc2)c2ccccc2)nc2c1CCO2 (stereo not drawn) [Compound I-87] | – | 1 | –

The remaining lines, values ahead:

Ki (ETB receptors) [nM] | Ki [1] [nM] | melting point [°C] | SMILES
56 | 0.6 | – | COc1nc(OC(C(=O)O)C(OC)(c2ccccc2)c2ccccc2)nc2c1CCC2 (stereo not drawn) [Compound I-96]
– | 0.4 | – | COc1cc(C)nc(OC(C(=O)O)C(OC)(c2ccccc2)c2ccccc2)n1 (stereo not drawn) [Compound I-103]
485 | 3 | – | COc1cc(OC)nc(OC(C(=O)O)C(SC)(c2ccccc2)c2ccccc2)n1 (stereo not drawn) [Compound I-107]
– | – | 143 to 147 | COc1nc(OC(C(=O)OCc2ccccc2)C(OC)(c2ccccc2)c2ccccc2)nc2c1CCC2 (stereo not drawn) [Example 12, Benzyl 3-methoxy-2-(4-methoxy-6,7-dihydro-5H-cyclopentapyrimidin-2-yloxy)-3,3-diphenylpropionate]
9300 | 86 | – | COc1nc(OC(C(=O)O)C(OC)(c2ccccc2)c2ccccc2)nc2c1ccn2C (stereo not drawn) [I.89]
2300 | 28 | 96 to 98 | COc1cc(OC)nc(OC(C(=O)O)C2(OC)c3ccccc3-c3ccccc32)n1 (stereo not drawn) [II-1]
7300 | 107 | – | COc1cc(OC)nc(OC(C(=O)O)C2(OC)c3ccccc3CCc3ccccc32)n1 (stereo not drawn) [II-3]
